Each structure is given as a SMILES string.

Ki and pregnenolone content data for four compounds are collected here from patent US7368444B2, “N-carbamoyl nitrogen-containing fused ring compounds and drugs containing these compounds as the active ingredient” (Ono Pharmaceutical Co., Ltd., priority 2002, dated 2008).

One assay deals with T1, MBR (Rattus norvegicus, UniProt P16257).
T1 construct: After male wistar rats were decapitated followed to remove the whole brain, cerebellums were removed; from tissue; host or cells: male Wistar rat whole brain without cerebellum, crude membrane pellet (12,000 g)
In words: Receptor binding: [3H]PK11195 competition binding, rat brain membrane preparation. The conditions noted are these: 1 nmol/L [3H]PK11195, rat brain membrane preparation; Ki from IC50 by Cheng & Prusoff. The procedure:
The affinity of the compound to MBR was determined using rat brain membrane preparation. After male wistar rats were decapitated followed to remove the whole brain, cerebellums were removed. They were homogenized in ice-cold 50 mmo/L Tris-HCl buffer (pH7.4) and the homogenates were centrifuged at 12,000 g for 20 min (4° C.), and then their supernatants were discarded. The residual pellets were washed in the same buffer. The pellets resuspended in 50 mmo/L Tris-HCl buffer (pH7.4) and adjusted to about 1 mg/mL were used as rat brain membrane preparations for binding assay. The binding assay was experimented using [3H]PK11195 as a selective MBR ligand.
To determine the amount of total binding in saturation binding study, membrane preparations, various concentrations of [^3H]PK11195, final concentraion: 0.5 vol % dimethylsulfoxide (DMSO) and 50 mmo/L Tris-HCl buffer (pH7.4) (total volume of 200 μL) were incubated for 1 hour at room temperature. To determine the amount of non-specific binding, 20 μmol/L of PK11195 was added in place of DMSO were incubated for 1 hour. The mixture rapidly was filtrated on GF/B filter soaked with 0.3% polyethyleneimine using cell harvester, which was washed twice with 50 mmo/L Tris-HCl buffer (pH7.4). After drying, the radioactivity on the filer was measured by liquid scintillation counter. The data were analyzed using analysis soft KELL (Ver. 6, BIOSOFT). The dissociation constant (KD value) was determined by using scatchard analyses.
To determine the amount of total binding in competition binding study, membrane preparation, final concentraion: 1 nmol/L of [^3H]PK11195, final concentraion: 0.5 vol % of DMSO and 50 mmol/L Tris-HCl buffer (pH7.4) (the total volume of 200 μL) were incubated for 1 hour at room temperature. […] The reaction was terminated as above described 1 hour later, then radioactivity on the filer was measured by liquid scintillation counter. […]

Assay [1] concerns rat adrenocortical mitochondria. In words: Determination of pregnenolone in rat adrenocortical mitochondria. Format: biochemical. The conditions noted are these: final concentration of the compound 1 μmol/L; compared with DMSO treated group. The procedure: The steroid productivity of the present compound was evaluated using rat adrenocortical mitochondria.
After intraperitoneal administration of 20 mg/mL (1 mL) cycloheximide, 10 IU/mL (0.3 mL) adrenocorticotropic hormone (ACTH) was intraperitoneally administered to Male SD rats 5 minutes later. Then, rats were sacrificed by cervical dislocation 20 minutes later and bilateral adrenal cortexes were extirpated at once. The extirpated adrenal cortexes were homogenized in buffer A (50 mmol/L Tris-HCl, 250 mmol/L Succrose) followed to be centrifuged at 2,000 g for 3 min (4° C.). The supernatant was centrifuged at 12,500 g for 10 min (4° C.). The residual pellet was resuspended in buffer A followed to be centrifuged at 12,500 g for 10 min (4° C.). The pellet was washed again and finally suspended in buffer B (250 mmol/L Succrose, 10 mmol/L potassium phosphate buffer, 15 mmol/L triethanolamine, 20 mmol/L potassium chloride, 5 mmol/L magnesium chloride, 10 μmol/L trilostane, 10 μmol/L SU10603) for experiments. Malate (150 mmol/L), β-NADP^+ (5 mmol/L) and the compound in a total volume of 25 μL were incubated for 5 min at 37° C. […] The radioactivity of the supernatant was measured by liquid scintillation counter. The pregnenolone content in the sample was calculated from standard curve.

For orientation: Ki means the equilibrium dissociation constant of an inhibitor or competing ligand from its target. Low readings indicate higher affinity, high ones lower affinity. `O=C(Nc1ccccc1)N1CCCCc2ccc(F)cc21` [7 (5), 8-fluoro-1-phenylcarbamoyl-2,3,4,5-tetrahydro-1H-1-benzazepine] returned a Ki on MBR of 5.5 nM.
The same measure, in the same setting: the result for `O=C(Nc1c(Cl)cccc1Cl)N1CCCCc2ccccc21` [7 (18), 1-(2,6-dichlorophenylcarbamoyl)-2,3,4,5-tetrahydro-1H-1-benzazepine] reads 0.09 nM; that for `O=C(Nc1ccc(O)cc1)N1CCCCc2ccccc21` [Example 14, 1-(4-hydroxyphenylcarbamoyl)-2,3,4,5-tetrahydro-1H-1-benzazepine], 32 nM.
As for `CCCCCCN(CCCCCC)C(=O)Cc1c(-c2ccc(F)cc2)[nH]c2ccccc12` [FGIN1-27, 2-[2-(4-fluorophenyl)-1H-indol-3-yl]-N,N-dihexylacetamide], the pregnenolone content result in assay [1] is “higher than that in DMSO treated group”.
